Measured values reported in ChEMBL document CHEMBL4368888, “Design, synthesis and biological evaluation of tryptamine salicylic acid derivatives as potential antitumor agents” (Medchemcomm, 2019).

How the values were obtained:
Type in all cases: functional, cell-based
HeLa = assay: Antiproliferative activity against human HeLa cells after 48 hrs by MTT assay
MGC-803 = assay: Antiproliferative activity against human MGC803 cells after 48 hrs by MTT assay; settings: MGC-803, 48 h
HepG2 = assay: Antiproliferative activity against human HepG2 cells after 48 hrs by MTT assay; settings: HepG2, 48 h
MCF7 = assay: Antiproliferative activity against human MCF7 cells after 48 hrs by MTT assay; settings: MCF7, 48 h
A549 = assay: Antiproliferative activity against human A549 cells after 48 hrs by MTT assay; settings: A549, 48 h

Row | SMILES | IC50 (HeLa) | IC50 (MGC-803) | IC50 (HepG2) | IC50 (MCF7) | IC50 (A549)
1 | O=C(NCCc1c[nH]c2ccc(Cl)cc12)c1cc(Cl)ccc1O | 80 µM | 31 µM | 89 µM | 80 µM | 62 µM
2 | Cc1cccc(C(=O)NCCc2c[nH]c3ccc(Cl)cc23)c1O | 56 µM | 56 µM | 62 µM | 70 µM | 48 µM
3 | Cc1ccc(C(=O)NCCc2c[nH]c3ccc(Br)cc23)c(O)c1 | 61 µM | 48 µM | 80 µM | 80 µM | 61 µM
4 | Cc1ccc2[nH]cc(CCNC(=O)c3ccc(Cl)cc3O)c2c1 | 93 µM | 47 µM | 98 µM | > 100 µM | 68 µM
5 | Cc1ccc2[nH]cc(CCNC(=O)c3ccccc3O)c2c1 | > 100 µM | 45 µM | > 100 µM | 93 µM | > 100 µM
6 | Cc1ccc(C(=O)NCCc2c[nH]c3ccc(Cl)cc23)c(O)c1 | 64 µM | 37 µM | > 100 µM | 73 µM | 63 µM
7 | COc1ccc2[nH]cc(CCNC(=O)c3cc(Cl)ccc3O)c2c1 | > 100 µM | 55 µM | 75 µM | > 100 µM | > 100 µM
8 | Cc1ccc2[nH]cc(CCNC(=O)c3cc(Cl)ccc3O)c2c1 | > 100 µM | 42 µM | > 100 µM | 79 µM | 89 µM
9 | O=C(NCCc1c[nH]c2ccc(F)cc12)c1ccccc1O | > 100 µM | 63 µM | > 100 µM | > 100 µM | > 100 µM
10 | COc1ccc2[nH]cc(CCNC(=O)c3cccc(C)c3O)c2c1 | 42 µM | 43 µM | 85 µM | 97 µM | > 100 µM
11 | Cc1ccc(C(=O)NCCc2c[nH]c3ccc(F)cc23)c(O)c1 | > 100 µM | 60 µM | > 100 µM | > 100 µM | > 100 µM
12 | O=c1[nH]cc(F)c(=O)[nH]1 [FLUOROURACIL] | 50 µM | 58 µM | 68 µM | – | > 100 µM
13 | COc1ccc2[nH]cc(CCNC(=O)c3ccc(C)cc3O)c2c1 | 80 µM | 59 µM | 80 µM | > 100 µM | > 100 µM
14 | COc1ccc2[nH]cc(CCNC(=O)c3ccc(Cl)cc3O)c2c1 | 71 µM | 56 µM | > 100 µM | > 100 µM | > 100 µM
15 | O=C(NCCc1c[nH]c2ccc(Cl)cc12)c1ccc(Cl)cc1O | 64 µM | 34 µM | 90 µM | 69 µM | 46 µM
16 | O=C(NCCc1c[nH]c2ccc(F)cc12)c1cc(Cl)ccc1O | > 100 µM | 53 µM | > 100 µM | > 100 µM | 53 µM
17 | O=C(NCCc1c[nH]c2ccccc12)c1cc(Cl)ccc1O | > 100 µM | 74 µM | > 100 µM | > 100 µM | > 100 µM
18 | O=C(NCCc1c[nH]c2ccc(Cl)cc12)c1ccccc1O | 81 µM | 35 µM | > 100 µM | 75 µM | 60 µM

Row | SMILES | IC50 (HeLa) | IC50 (MGC-803) | IC50 (HepG2) | IC50 (MCF7) | IC50 (A549)
19 | O=C(NCCc1c[nH]c2ccc(Br)cc12)c1ccc(Cl)cc1O | 71 µM | 43 µM | 92 µM | 98 µM | 63 µM
20 | O=C(NCCc1c[nH]c2ccccc12)c1cc(Br)ccc1O | > 100 µM | 78 µM | > 100 µM | > 100 µM | > 100 µM
21 | O=C(NCCc1c[nH]c2ccc(Br)cc12)c1ccccc1O | 79 µM | 37 µM | > 100 µM | 80 µM | 59 µM
22 | COc1ccc2[nH]cc(CCNC(=O)c3cc(Br)ccc3O)c2c1 | 74 µM | 62 µM | > 100 µM | > 100 µM | > 100 µM
23 | Cc1cccc(C(=O)NCCc2c[nH]c3ccc(F)cc23)c1O | > 100 µM | 52 µM | > 100 µM | > 100 µM | 67 µM
24 | Cc1ccc2[nH]cc(CCNC(=O)c3cccc(C)c3O)c2c1 | 61 µM | 38 µM | 64 µM | 62 µM | 50 µM
25 | O=C(NCCc1c[nH]c2ccc(F)cc12)c1ccc(Cl)cc1O | > 100 µM | 62 µM | > 100 µM | > 100 µM | > 100 µM
26 | O=C(NCCc1c[nH]c2ccccc12)c1ccccc1O | > 100 µM | > 100 µM | > 100 µM | > 100 µM | > 100 µM
27 | O=C(NCCc1c[nH]c2ccc(Br)cc12)c1cc(Br)ccc1O | > 100 µM | 80 µM | > 100 µM | > 100 µM | 62 µM
28 | Cc1ccc(C(=O)NCCc2c[nH]c3ccccc23)c(O)c1 | > 100 µM | 80 µM | > 100 µM | > 100 µM | > 100 µM
29 | O=C(NCCc1c[nH]c2ccc(Br)cc12)c1cc(Cl)ccc1O | 80 µM | 63 µM | 87 µM | 73 µM | 63 µM
30 | O=C(NCCc1c[nH]c2ccccc12)c1ccc(Cl)cc1O | > 100 µM | 80 µM | > 100 µM | > 100 µM | > 100 µM
31 | O=C(NCCc1c[nH]c2ccc(F)cc12)c1cc(Br)ccc1O | 76 µM | 80 µM | > 100 µM | > 100 µM | 77 µM
32 | Cc1cccc(C(=O)NCCc2c[nH]c3ccccc23)c1O | 82 µM | 63 µM | > 100 µM | > 100 µM | > 100 µM
33 | COc1ccc2[nH]cc(CCNC(=O)c3ccccc3O)c2c1 | 82 µM | 59 µM | > 100 µM | > 100 µM | > 100 µM
34 | Cc1ccc2[nH]cc(CCNC(=O)c3cc(Br)ccc3O)c2c1 | > 100 µM | 61 µM | 93 µM | 89 µM | 80 µM
35 | O=C(NCCc1c[nH]c2ccc(Cl)cc12)c1cc(Br)ccc1O | 85 µM | 35 µM | > 100 µM | 75 µM | 63 µM
36 | Cc1ccc(C(=O)NCCc2c[nH]c3ccc(C)cc23)c(O)c1 | > 100 µM | 38 µM | > 100 µM | 60 µM | 75 µM
